Test results from a melting point compilation (Tetko et al.; mined from patent text by program, amines drawn as free bases though some values may be those of a salt).

SMILES	melting point [°C]
COC(=O)[C@H](Cc1ccc(NC(=O)c2c(Cl)cccc2Cl)cc1)NC(=O)OC(C)(C)C	148 to 151
CCN(CC)CC1CCCCN1CC(=O)N1c2nc(C)cc(C)c2NC(=O)c2cccc(C)c21 (stereo unspecified)	213 to 215
CC(C)(C)C1c2ccccc2-c2cc(Br)ccc2N1S(=O)(=O)c1ccc(O)cc1 (stereo unspecified)	245 to 247
CCC1(CO)CCCN2CCc3c([nH]c4ccccc34)C21 (stereo unspecified)	230 to 233
COCC1CN(c2ccc(C3CCC4(CC3)OCCO4)cn2)C(=O)O1 (racemic)	117 to 121
CCOC(=O)COc1ccccc1-c1nc2n(C3CCCC3)[nH]c(CC)c-2c(=O)n1	116 to 117
CC(=O)Nc1c([N+](=O)[O-])cnn1-c1c(F)c(F)c(C(F)(F)F)c(F)c1F	136 to 138
Fc1ccc(-c2ccc3[nH]c4c(ccc5cc[nH]c54)c3c2)cc1	> 250
O=C1CCN(Cc2ccccc2)C(=O)C1=C1SC=CS1	122 to 124
CC(C)(C)c1ccc(CN=C=S)cc1	44 to 47
O=c1oc2cccc(O)c2c(OCCN2CCOCC2)c1-c1ccccc1	206
CC(=O)N1CCCc2c1n(-c1ccccc1)c1c(c2=O)CCc2ccccc2-1	178 to 182
CCN(CC)CCc1nc(-c2ccc(OC)c(OC)c2)c2cc(OC)c(OC)cc2n1	164 to 166
CCn1c(=O)c(C#N)c(N2CCCC2)c2ccc(C)nc21	211 to 213
Cc1ccccc1/C=C/c1c(C(C)C)nc(C(C)C)c(CO)c1-c1ccc(F)cc1	108 to 111
CCOC(=O)C(=CNC1CC1)C(=O)c1cc(F)c(N2CCC(NC(C)=O)C2)nc1Cl (stereo unspecified)	71 to 75
COc1ccccc1Nc1nc(-c2ccccn2)cs1	165 to 166
O=S(=O)(Nc1cccc2cc(-c3ccccn3)[nH]c12)c1cccs1	161 to 162
O=S1(=O)NCC2(OCCO2)c2ccc3ccccc3c21	202 to 204

SMILES	melting point [°C]
COCc1ccc2ccc(C=O)nc2c1Cl	118 to 121
CCOC(=O)C1=C(C)NC(C)=C(C(=O)OCCN2CCN(C(c3ccccc3)c3ccccc3)CC2)C1c1cccc([N+](=O)[O-])c1 (stereo unspecified)	80 to 82
O=C1CCC(c2ccccc2)(N2CCCCC2)CC1	116 to 117
CCOC(=O)c1ccc(/C=C(\COCc2ccc(OC)cc2)Cn2ccnc2)c(OC)c1	74 to 74.5
CC(c1ccc(NC=O)c([N+](=O)[O-])c1)n1ccnc1 (stereo unspecified)	158
S=C1Nc2ccccc2Sc2ccccc21	245 to 246
CC(=O)Nc1ccc(-c2cc(-c3ccc(NC(C)=O)cc3C)cc(-c3ccc(NC(C)=O)cc3C)c2)c(C)c1	180
CCCCC(=NNC(N)=S)OCC	73 to 74.5
Cn1ccc2ccc(-c3ccc(C(C)(C)C)cc3)cc21	92 to 94
O=C(O)CCCCC1Cc2ccc(F)cc2C1=O (stereo unspecified)	122 to 123
CN(C)CCCN=C1CC(c2ccc(Cl)cc2Cl)Cc2[nH]c3ccc(Cl)cc3c(=O)c21 (stereo unspecified)	168 to 170
Brc1ccc(Br)c2nsnc12	181 to 183
Cc1cccc2sc(NN)nc12	161 to 166
CN(CCCCCCCNC(=O)NCCSCc1csc(NC(=N)N)n1)CCN(Cc1ccc(F)cc1)c1ccccn1	125
Cc1cccc(C(=O)Cc2ccnc(N)c2)c1	119 to 120
CC(C)(C)OC(=O)NOCC(O)c1ccccc1 (stereo unspecified)	97 to 99
CCn1c(=O)n(-c2ccc(-n3ccn4c5ccccc5nc34)cc2)c2ncccc21	220 to 221
CCOCc1nc2c(N)nc3cc(OCCCN4CCCC4=O)ccc3c2n1CCCCNC(=O)NC(C)C	98 to 101
Cc1cccc2c1C(=O)N(C)Cc1c(C#CC(C)(C)O)ncn1-2	165 to 167

SMILES	melting point [°C]
COC(=O)NCc1cccc(-c2ccnc3c(C(=O)c4ccco4)cnn23)c1	152 to 154
COc1cc(OC)nc(NC(=O)NS(=O)(=O)c2cc(Br)cc3c2OS(=O)(=O)C=C3)n1	204 to 209
CCOCc1nc(C(C)(C)O)c(C(=O)OCOC(=O)C(C)(C)C)n1Cc1ccc(-c2ccccc2-c2nnn[nH]2)cc1	56 to 61
O=C1c2c(-c3ccccc3F)noc2CCC1CCCN1CCN(c2ncccn2)CC1 (stereo unspecified)	115 to 117
CC(=O)Oc1cc(OCCF)ccc1C(=O)O	126 to 127
O=C(NC(=O)C(c1ccccc1)c1ccccc1)OCC1CC1	108
Cc1c(CC(=O)O)c2c(F)c(O)ccc2n1C(=O)c1ccc(Cl)cc1	187 to 189
CCCCC(=O)N(Cc1ccc(OC(F)(F)F)cc1)c1cc(Cl)cc(-c2nnn[nH]2)c1	177 to 180
Sc1nc2cc(C(c3ccccc3)n3ccnc3)ccc2[nH]1 (stereo unspecified)	260
ClCOc1ccc(Cl)cc1Br	56 to 57.5
CCOC(=O)c1cc2c(F)ccc(Cl)c2s1	63 to 64
COC(=O)N1CCC(CCC(=O)O)CC1	88 to 90
CCN(CC)C(=O)c1cccc(-c2nc(=O)c3ccccc3s2)n1	194
Cc1cc(Cl)ccc1-c1c(O)c(C)c(-c2ccccn2)oc1=O	133 to 135
Cc1nc(NC(=O)CC2CC2)sc1C(=O)NCc1ccccc1	136 to 139
O=C1CC2CCSc3sc(CCO)cc3C2=NN1 (stereo unspecified)	165 to 167
Oc1ccc(Nc2ncc3nc(Nc4c(F)cc(F)cc4F)n(C4CCCC4)c3n2)cn1	257 to 260
COc1ccc(N2CCC(c3cnc(N)nc3N)CC2)cc1	224 to 225
CCc1ccc(S(=O)O)cc1Cl	58 to 60

The remaining lines, values ahead:

melting point [°C]	SMILES
51	C=CCc1c(C)cc(C)cc1O
121 to 124	N#Cc1c(NC(=O)CO)cccc1N1CCCCC1
206 to 209	FC(F)(F)c1ccc(-c2cc(Oc3ccc4cc[nH]c4c3)ncn2)cc1
208 to 210	Cc1nc(NC(=O)NS(=O)(=O)c2ccccc2OC(Cl)=CCl)nc2c1CCO2
176 to 177	CCCCN1C(=O)C2=C(c3ccc(Cl)cc3)N(CCCC)C(=O)C2=C1c1ccc(Cl)cc1
158 to 159	COc1nc2ccccc2cc1NC(=O)N1CCN(c2cc(F)cc(F)c2)CC1
198	CN(C)CCNS(=O)(=O)c1cc(NC(=O)c2cnn3c(C(F)(F)F)cc(-c4ccc(C(F)(F)F)cc4)nc23)c(Cl)s1
185 to 186	Nc1nc2ccccc2c2c1nc1n2C(COCc2ccccc2)COC1 (stereo unspecified)
146 to 147	Cc1noc(NS(=O)(=O)c2ccccc2-c2ccc(-c3ncco3)cc2CN(CC(F)(F)F)C(=O)C(C)(C)C)c1C
263 to 265	CCc1c2nc(-c3cc(S(C)(=O)=O)ccc3OCC(C)C)[nH]c(=O)c2nn1C1CCNCC1
256 to 259	Cc1cccc(Nc2c([N+](=O)[O-])cc(C(=O)O)cc2S(N)(=O)=O)c1
138	CCOC(=O)c1cn(C2CC2)c2nc(SCC)ncc2c1=O
> 260	CCc1nccn1-c1ccccc1C(=O)Nc1ccc(C(=O)N2CCC(F)(F)/C(=C\C(=O)NC3CC3)c3ccccc32)cc1
126 to 129	COc1cc2c(cc1Br)CC=C2CCNC(=O)C(F)(F)F
136 to 137	CNC(=O)N(O)C(C)C#Cc1ccccc1 (stereo unspecified)
49 to 58	COc1ccc(CCCNC(=O)c2coc(-c3ccc(/C(=C\CCCCC(=O)O)c4cccnc4)cc3)n2)cc1
227 to 231	O=C(O)c1cc2c(Cl)cccc2s1
119 to 122	CCc1nc2c(cnn2CC)c(NC2CCOCC2)c1CNC(=O)c1cccc(C(=O)NCc2cc(Cl)cc(-c3cccc(CN4CCNCC4)c3)c2)c1
110 to 111	O=c1occc2ccc(Cl)cc12
126 to 128	Clc1ccc(C(=Cn2cncn2)c2ccc(Cl)cc2)cc1
136 to 138	CCOC(=O)c1nc(NC)sc1-c1ccncc1
79 to 80	CN[C@@H](Cc1ccc(C(F)(F)F)cc1)[C@H](O)c1ccc(F)cc1 (racemic)

melting point [°C]	SMILES
74 to 76	CC(Br)(CBr)CS(=O)(=O)Oc1c(Cl)cccc1Cl (stereo unspecified)
88	CCCn1nc(SCCCCCC(=O)O)c(C(=O)O)c1Cc1cc2c(cc1Cl)OCO2
215 to 219	C=CCC(C#N)(c1ccc(F)cc1)c1ccccc1F (stereo unspecified)
80 to 82	Nn1cccc1-c1ccccc1
149 to 150	CCOc1ccc(-c2nc(OC(C)=O)c(-c3ccccc3)s2)cc1
72 to 75	CCCC(=O)c1ccc(N(CCO)CCO)cc1
153	Nc1n[nH]c2cccc(I)c12
67 to 69	Cc1cc(C)cc(P(c2ccccc2)c2ccccc2)c1
142 to 143	CN(C)c1ccc(-c2nc(Cl)c(CC#N)n2Cc2ccccc2)cc1Cl
132 to 135	CC(C)(OCc1nn(C(=O)c2ccccc2)c2ccccc12)C(=O)O
57	COCC(Oc1ccc(Nc2ccc(C(F)(F)F)cc2[N+](=O)[O-])cc1)C(=O)OC (stereo unspecified)
156 to 157	COc1ccnc(C(C)S(=O)c2nc3cc(OC(F)(F)C(F)F)ccc3[nH]2)c1 (stereo unspecified)
283	COc1cc2c(-c3cc4cc(F)cnc4[nH]3)cn(C)c2cc1OC
121	FC(F)(F)c1cc(-c2cccs2)[nH]n1
113 to 115	CCOC(=O)C=Cc1ccc2c(c1)CC(CNS(=O)(=O)c1ccc(Cl)cc1)C2 (stereo unspecified)
97 to 98	Cc1ccc(CC(CC(=O)Oc2ccc([N+](=O)[O-])cc2)C(=O)Oc2ccc([N+](=O)[O-])cc2)cc1 (stereo unspecified)
73 to 75	CN(C(N)=O)c1ccccc1S
82 to 85	C#CCN(C(=O)c1cnccc1C(F)(F)F)S(=O)(=O)c1cccc(Cl)c1
142	O=C(O)CCSCSCC(C(=O)O)c1cccc(OCc2ccc3ccc(Cl)cc3n2)c1 (stereo unspecified)
199 to 200	Cc1nnc2ncc(-c3ccccc3)cn12
254 to 257	c1cc2cc(-n3cnnc3)ncc2[nH]1
102	CCCCC1SCC(C(=O)OC(C)(C)C)N1C(=O)CNC(=O)NCC(C(=O)O)c1ccccc1 (stereo unspecified)
